Literature values in paper PMC7196435 (Bioorganic & medicinal chemistry letters, 2020).

Tested on: CYP46A1
Conditions: at 1 μM concentration

O=C(NCc1ccccc1)N1CCN(c2cncnc2-c2ccccc2)CC1 [compound 1]
inhibitory activity towards CYP46A1: 95%
